Measurements published in paper PMC8748766, “The catalytic activity of TCPTP is auto-regulated by its intrinsically disordered tail and activated by Integrin alpha-1” (Nature Communications, 2022).

Assays:
TCPTP [1] = molecular target: T1, TCPTP (Homo sapiens, UniProt P17706); assay: Effect of ITGA1, ITGA10 & ITGA11 peptide on TCPTP activity, pEGFR peptide-2; format: biochemical; settings: pEGFR peptide-2 substrate, n = 9
T1 construct: fragments of TCPTP (residues: 1–387); His6 (N, cleaved yes); made in house; host or cells: E. coli BL21 (DE3) RIL
T1 sequence (P17706 1-387 isoform P17706-2): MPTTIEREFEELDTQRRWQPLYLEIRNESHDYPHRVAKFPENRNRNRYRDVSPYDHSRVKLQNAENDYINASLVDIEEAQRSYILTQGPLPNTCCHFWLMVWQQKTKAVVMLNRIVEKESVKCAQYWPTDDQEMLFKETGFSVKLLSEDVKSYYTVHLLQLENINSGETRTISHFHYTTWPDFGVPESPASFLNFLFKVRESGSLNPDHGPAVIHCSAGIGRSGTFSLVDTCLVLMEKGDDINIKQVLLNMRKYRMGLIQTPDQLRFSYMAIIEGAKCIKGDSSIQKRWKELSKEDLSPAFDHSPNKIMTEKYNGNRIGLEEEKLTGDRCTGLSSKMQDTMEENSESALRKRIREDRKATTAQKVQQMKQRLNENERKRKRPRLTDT
Source text: (§1) Polymerase chain reaction (PCR) fragments of TCPTP (residues: 1–387) TCPTPCAT (catalytic domain, residues: 1–288, 1–302 or 1–314), TCPTPTail (C-terminal tail, residues: 289–387 or 303–387) were amplified from full-length human TCPTP (TC45 isoform). TCPTP, TCPTPCAT (residues: 1–288, 1–314), and TCPTPTail (residues: 289–387) fragments were cloned into pMCSG7 including a N-terminal His6-tag using ligation-independent cloning. For all NMR experiments, the PCR fragments of TCPTP, TCPTPCAT (residues: 1–302) and TCPTPTail (residue: 303–387) were sub-cloned into pRP1B as previously described.
Relative activity of TCPTP and its variant mutant construct were measured by adding 1 nM of enzymes against the fixed concentration of substrate (100 μM of phosphopeptides), the reaction was incubated at 30 °C for 30 min in assay buffer before getting stopped as described above. […]
Supplementary Figure 8: TCPTP is distinctively activated by Integrin cytoplasmic tail with positive charge residue clusters. a Sequence alignment of the cytoplasmic tail for the human Integrin family. Positive charge residues are highlighted in blue, while negative charge residues are red; a black box highlights large clusters of positive charge residue. b Effect of ITGA1, ITGA10 & ITGA11 on the catalytic activity of TCPTP, measured against pEGFR peptide-2, derived from the EGFR’s kinase domain activation loop. […]

TCPTP [2] = molecular target: T1, TCPTP; assay: Kinetics of TCPTP with saturating ITGA1 peptide, pEGFR peptide-2 substrate; format: biochemical; settings: TCPTP saturated with ITGA1 peptide (ITGA1_TR 1 μM; ITGA1_FCT 25 μM), mean ± SE, n = 9
Source text: as §1
(§2) The rate of dephosphorylation of TCPTP and TCPTPCAT (residue 1–314) against 2 phosphotyrosine peptides derived from EGFR was monitored either with or without ITGA1 peptide (ITGA1_FCT & ITGA1_TR) in assay buffer (25 mM Hepes pH 7.4, 50 mM NaCl and 1 mM DTT). Lyophilized powder of all synthetic peptides was dissolved in assay buffer without DTT (phosphopeptides, 5 mM; ITGA1 peptides, 2 mM). For the kinetic analysis, the concentration of the enzyme was fixed at 1 nM while the substrate (phosphopeptides) concentration was varied from 2.5 μM to 160 μM in a total reaction volume of 200 μl. Effect of ITGA1 peptide on TCPTP & TCPTPCAT kinetics were assessed in saturated condition by adding an excess amount of ITGA1 peptide to the reaction mixture (ITGA1_TR = 1 μM; ITGA1_FCT = 25 μM). The reaction was incubated at 30 °C for 30 min and stopped by the addition of 30 μl phosphate reagent (phosphate colorimetric assay kit; Bio Vision) following the manufacturer’s instructions. Data were normalized and fitted using a nonlinear curve, and kinetics parameters (KM and kcat) were calculated from the Michaelis-Menten equation using Graph Pad Prism 9.0. All data points in the enzyme kinetics experiment were measured in triplicate, and the experiments were repeated three times.

TCPTP [3] = molecular target: T1, TCPTP; assay: Kinetics of TCPTP with saturating ITGA1 peptide, pEGFR peptide-1 substrate; format: biochemical; settings: TCPTP saturated with ITGA1 peptide (ITGA1_TR 1 μM; ITGA1_FCT 25 μM), mean ± SE, n = 9
Source text: as §1, §2

TCPTP [4] = molecular target: T1, TCPTP; assay: EC50 assay: TCPTP activation by ITGA1 peptides (pEGFR peptide-1 dephosphorylation); format: biochemical; settings: 1 nM TCPTP, 50 μM pEGFR peptide-1, n = 3
Source text: as §1
To determine the EC50, synthesized ITGA1 peptides (ITGA1_FCT, ITGA1_TCT and ITGA1_TR) were mixed with TCPTP, and phosphatase activity was measured using the phospho-EGFR peptides (pEGFR peptide-1) as substrate. Lyophilized powder of all peptides was dissolved in 25 mM Hepes pH 7.4, 50 mM NaCl. For the assay, the TCPTP concentration was fixed at 1 nM and substrate phospho-peptide at 50 μM. […] The absorbance of the reaction mixture was measured at 650 nm, which was converted to the amount of phosphate produced in reaction based on the standard curve generated from the known phosphate concentration. Data obtained from the reaction was fitted using nonlinear regression mode and EC50 values were calculated based on the equation function “Log(agonist) vs. response-variable slope” using Graph Pad Prism 9.0.

TCPTPCAT = molecular target: T2, TCPTPCAT (Homo sapiens, UniProt P17706); assay: NMR titration (2D HSQC/TROSY) binding to TCPTPCAT; settings: 2D [1H,15N] TROSY, unlabeled ligand added
T2 construct: TCPTP and TCPTPCAT (residue 1–314) against 2 phosphotyrosine peptides derived from EGFR; His6 (N, cleaved yes); made in house; host or cells: E. coli BL21 (DE3) RIL
T2 sequence (P17706 1-314 isoform P17706-2): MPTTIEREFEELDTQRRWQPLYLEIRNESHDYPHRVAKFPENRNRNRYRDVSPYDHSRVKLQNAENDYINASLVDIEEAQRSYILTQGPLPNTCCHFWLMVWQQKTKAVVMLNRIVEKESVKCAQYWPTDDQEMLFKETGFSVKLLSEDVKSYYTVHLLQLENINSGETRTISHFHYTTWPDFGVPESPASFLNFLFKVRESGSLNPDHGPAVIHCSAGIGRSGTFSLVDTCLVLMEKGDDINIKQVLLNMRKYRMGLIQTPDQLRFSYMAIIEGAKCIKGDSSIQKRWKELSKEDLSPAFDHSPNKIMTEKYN
Source text: as §1
NMR data were collected on either Bruker NEO 600 MHz or 800 MHz spectrometers equipped with TCI HCN z-gradient cryoprobes at 298 K or 283 K. NMR measurements of TCPTP’s variant construct were recorded using (^1H,^15N)-, (^2H,^15N)-, (^1H,^15N,^13C), or (^2H,^15N,^13C)-labeled protein at a final concentration of 0.6 mM for backbone assignment or 0.1 mM for titration in NMR buffer and 90% H2O/10% D2O. The sequence-specific backbone assignments of TCPTP (residues 1–387), TCPTPCAT (residues 1–302), TCPTPTail (residues 303–387) and other variants were achieved using 3D triple resonance experiments including […], 3D HNCA, 3D HN(CO)CA, 3D HN(CO)CACB, and 3D HNCACB either as HSQC or TROSY variations. All NMR data were processed using TopSpin 4.0.5[44] and analyzed using either CARA (http://www.cara.nmr.ch) and/or CcpNMR[45].

[5] = system: pEGFR peptide-1, derived from the cytoplasmic tail of EGFR; assay: Phosphatase kinetic analysis (Michaelis-Menten) of TCPTP constructs, pEGFR peptide-1 substrate; format: biochemical
Experimental: as §2

[6] = system: pEGFR peptide-2, derived from the EGFR's kinase domain activation loop; assay: Phosphatase kinetic analysis (Michaelis-Menten) of TCPTP constructs, pEGFR peptide-2 substrate; format: biochemical
Experimental: as §2
Supplementary Table 2: Enzymatic activity assay (Michaelis-Menten analysis); substrate pEGFR peptide-2, derived from the EGFR’s kinase domain activation loop. Calculated kinetic parameter are presented as the mean of nine independent reactions (n=9; mean ± SE). Source data are provided as a Source Data file. kcat (s-1) Km (µM) kcat/Km (µM -1s-1)

[7] = DiFMUP assay of TCPTP, TCPTPCAT, PTP1B and PTP1BCAT; format: biochemical; settings: 10 μM DiFMUP, 2.5 nM protein, pH 7.4, 25 min, fluorescence 455 nm; n = 9
Experimental: Activity of TCPTP, TCPTPCAT (residue 1–314) either with or without ITGA1 peptides (ITGA1_TR; 1:50 molar ratio, ITGA1_FCT; 1:1000 molar ratio), PTP1B (residue 1–400) and PTP1BCAT (residue 1–321) were assessed in assay buffer (25 mM Hepes pH 7.4, 50 mM NaCl, and 1 mM DTT). The assay was performed in black polystyrene flat bottom 96-well plate. The concentration of DiFMUP was fixed at 10 μM and protein concentration at 2.5 nM in total reaction volume of 100 μl. The emitted fluorescent signal at 455 nm was continuously recorded for 25 min using a Tecan Infinite M1000 pro microplate reader (Tecan i-control, 2.0.10.0).

[8] = pEGFR peptide-2 2.5-160 μM, 1 nM enzyme, pH 7.4, 30 °C 30 min, mean ± SE, n = 9

## KLGFFRSARRRREPGLDPTPKVLE [ITGA11]
TCPTP [1]
  TCPTP activation: efficiently activates TCPTP

## KIGFFKRPLKKKMEK [ITGA1_FCT, ITGA1 full cytoplasmic tail: …]
TCPTP [2]; pEGFR peptide-2, pH 7.4, 30 °C 30 min
  kcat: 30.2 ± 1.2 s⁻¹
TCPTP [2]; pEGFR peptide-2
  Km: 32.8 ± 3.7 µM
  kcat/Km: 0.9 ± 0.1 µM -1s-1
TCPTP [3]; pEGFR peptide-1, 1 nM enzyme, pH 7.4, 30 °C 30 min
  kcat: 26.6 ± 0.8 s⁻¹
TCPTP [3]; pEGFR peptide-1, pH 7.4, 30 °C
  Km: 20.2 ± 1.9 µM
TCPTP [3]; pEGFR peptide-1
  kcat/Km: 1.3 ± 0.1 µM⁻¹ s⁻¹
TCPTP [4]
  activation relative to ITGA1_TCT: functions better than ITGA1_TCT
TCPTPCAT
  NMR titration: CSPs in (2H,15N)-labeled TCPTPCAT: significant CSPs in the same residues

## KLGFFAHKKIPEEEKREEKLEQ [ITGA10]
TCPTP [1]
  TCPTP activation: fails to do so

B1: TCPTP: T-Cell Protein Tyrosine Phosphatase, TC45 isoform, full-length residues 1–387 (protein)
chain: MPTTIEREFEELDTQRRWQPLYLEIRNESHDYPHRVAKFPENRNRNRYRDVSPYDHSRVKLQNAENDYINASLVDIEEAQRSYILTQGPLPNTCCHFWLMVWQQKTKAVVMLNRIVEKESVKCAQYWPTDDQEMLFKETGFSVKLLSEDVKSYYTVHLLQLENINSGETRTISHFHYTTWPDFGVPESPASFLNFLFKVRESGSLNPDHGPAVIHCSAGIGRSGTFSLVDTCLVLMEKGDDINIKQVLLNMRKYRMGLIQTPDQLRFSYMAIIEGAKCIKGDSSIQKRWKELSKEDLSPAFDHSPNKIMTEKYNGNRIGLEEEKLTGDRCTGLSSKMQDTMEENSESALRKRIREDRKATTAQKVQQMKQRLNENERKRKRPRLTDT
modifications: left off: His6, N-terminal, cleaved
[5]; pEGFR peptide-1 2.5-160 μM, 1 nM enzyme, 25 mM Hepes pH 7.4, 50 mM NaCl, 1 mM DTT, 30 °C 30 min, mean ± SE, n = 9 (TCPTPCAT, TCPTP) or 12 (TCPTPC-term, TCPTPL1)
  kcat: 12.2 ± 0.2 s⁻¹
[5]; pEGFR peptide-1 2.5-160 μM, 1 nM enzyme, pH 7.4, 30 °C 30 min, mean ± SE, n = 9 (TCPTPCAT, TCPTP) or 12 (TCPTPC-term, TCPTPL1)
  Km: 12.4 ± 0.6 µM
[5]; pEGFR peptide-1, pH 7.4, 30 °C, mean ± SE, n = 9 (TCPTPCAT, TCPTP) or 12 (TCPTPC-term, TCPTPL1)
  kcat/Km: 1.0 ± 0.1 µM⁻¹ s⁻¹
[5]; pEGFR peptide-1, vs TCPTPCAT
  rate of dephosphorylation, fold slower than TCPTPCAT: ~ 3 fold
[6]; [8]
  Km: 21.2 ± 2.6 µM
  kcat: 13.8 ± 0.5 s⁻¹
[6]; pEGFR peptide-2, mean ± SE, n = 9
  kcat/Km: 0.6 ± 0.1 µM -1s-1
[6]; pEGFR peptide-2, vs TCPTPCAT
  rate of dephosphorylation, fold slower than TCPTPCAT: ~ 3 fold
[7]
  DiFMUP dephosphorylation, times slower than with TCPTPCAT: ~ 3 times
